Data published in US20240132464A1, “HETEROCYCLIC COMPOUNDS AS E3 LIGASE INHIBITORS” (Accutar Biotechnology Inc., priority 2022, published 2024).

Molecular target: T1, GID4 (Uniprot ID: Q81VV7, residues 124-289) (Homo sapiens, UniProt Q8IVV7)
T1 construct: GID4 (Uniprot ID: Q81VV7, residues 124-289)
T1 sequence (Q8IVV7 124-289): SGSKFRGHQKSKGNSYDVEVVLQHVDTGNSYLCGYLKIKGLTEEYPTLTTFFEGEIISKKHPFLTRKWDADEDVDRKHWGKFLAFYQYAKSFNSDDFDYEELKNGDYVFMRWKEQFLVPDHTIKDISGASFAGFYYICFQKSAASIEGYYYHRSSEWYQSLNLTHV
Experiment: GID4 competitive binding assay (AlphaScreen, GID4/degron peptide PGLW)
Conditions: 24 nM GID4, 48 nM biotinylated degron peptide PGLW, 4° C., read-out: IC50 (Inhibition of GID4/Degron binding by test compounds)
Method: GID4 Competitive Binding Assay
GID4 binding affinity of compounds disclosed herein was measured by monitoring the interaction of GID4 with its degron peptide (PGLW) in the presence of the test compounds. A truncated version of GID4 (Uniprot ID: Q81VV7, residues 124-289) with a 6*His at its C-terminus was used in this assay. Tetrapeptide, PGLW, was synthesized and tagged with an additional lysine labeled with biotin at its sidechain.
GID4 competitive binding assays were performed in a 384-well plate at 4° C. in a 20 μL reaction volume. Briefly, 24 nM GID4 (final concentration) proteins were pre-incubated with 48 nM biotinylated degron peptide (final concentration) in an assay buffer containing 20 mM HEPES, pH 7.5, 100 mM NaCl, 1 mM DTT, 0.1% Tween-20, and 0.05% BSA in the presence of the test compound in 2% DMSO (final concentration) at various concentrations for 2 h. 5 ug/ml Streptavidin ALphaScreen donor beads and 5 ug/ml nickel chelate (Ni-NTA) ALphaScreen acceptor beads (PerkinElmer, 6760619C) (final concentrations) were then added to the mixture. After an incubation of 1 h at 4° C., the fluorescent signals were obtained on the EnVision® 2105 Multilabel Plate Reader (PerkinElmer).
Raw ALphaScreen data were converted to a percentage of inhibition (relative to DMSO) using the following equations: […]
For a given test compound concentration X:
Signal (X)=Signal (GID4 & peptide & compound)−Signal (GID4 & buffer & compound)
Percentage of inhibition at concentration X=[1−Signal(X)/Signal (DMSO)]*100% b)
The IC50 values were determined by nonlinear regression of plots of [inhibitor] vs. percentage of inhibition with variable slope.
Table 3 summarizes the inhibition of binding between GID4 and degron peptide with compounds of the present disclosure. Compounds were ranked into bins as follows for IC50: A indicates <500 nM; B indicates 500 nM-5000 nM; C indicates >5000 nM.

First: Nc1cc(N2CCC=C(c3ncn4ccccc34)C2)nc(N)n1 [Compound 237, 6-(5-(imidazo[1,5-a]pyridin-1-yl)-3,6-dihydropyridin-1(2H)-yl)pyrimidine-2,4-diamine]
Second: Nc1cc(N2CCNC(c3cnc4ccccn34)C2)nc(N)n1 (racemic) [Compound 119, (S/R)-6-(3-(imidazo[1,2-a]pyridin-3-yl)piperazin-1-yl)pyrimidine-2,4-diamine]
The IC50 of the first is lower: 0.5 to 5 µM for the first, greater than 5 µM for the second.

First: CNc1cc(N2CCCC(c3cnc4ccccn34)C2)nc(NC)n1 (racemic) [Compound 123, (S/R)-6-(3-(imidazo[1,2-a]pyridin-3-yl)piperidin-1-yl)-N2,N4-dimethylpyrimidine-2,4-diamine]
Second: CC(C)c1nc(N)cc(N2CCCC(c3cnc4ccccn34)C2)n1 (single isomer, unassigned) [Compound 141, R or S-6-(3-(imidazo[1,2-a]pyridin-3-yl)piperidin-1-yl)-2-isopropylpyrimidin-4-amine]
The IC50 of the first is higher: 0.5 to 5 µM for the first, less than 0.5 µM for the second.

`CC(C)c1cc(N(C)CCc2c[nH]c3ccccc23)nc(N)n1` [Compound 179, N4-(2-(1H-indol-3-yl)ethyl)-6-isopropyl-N4-methylpyrimidine-2,4-diamine] and `CC(C)c1cc(N2CCCC(n3c(=O)[nH]c4ccccc43)C2)nc(N)n1` (stereo not drawn) [Compound 252, 1-(1-(2-amino-6-isopropylpyrimidin-4-yl)piperidin-3-yl)-1,3-dihydro-2H-benzo[d]imidazol-2-one] fall in the same range of IC50: 0.5 to 5 µM for the first, 0.5 to 5 µM for the second.

`Cn1cc(CNC(=O)c2n[nH]c3ccc(-c4ccc5ccnc(N)c5c4)cc23)cn1` [Compound 328, 5-(1-aminoisoquinolin-7-yl)-N-((1-methyl-1H-pyrazol-4-yl)methyl)-1H-indazole-3-carboxamide] and `CN(C)C1CCN(C(=O)c2n[nH]c3ccc(-c4ccc5ccnc(N)c5c4)cc23)CC1` [Compound 335, (5-(1-aminoisoquinolin-7-yl)-1H-indazol-3-yl)(4-(dimethylamino)piperidin-1-yl)methanone] cannot be ordered by IC50: less than 0.5 µM for the first, less than 0.5 µM for the second.

First: CC(C)c1cc(N2CCNC(c3cc(F)c(F)cc3Br)C2)nc(N)n1 (stereo not drawn) [Compound 170, 4-(3-(2-bromo-4,5-difluorophenyl)piperazin-1-yl)-6-isopropylpyrimidin-2-amine]
Second: Cc1c(-c2ccc(Br)c(C3CN(c4cc(C(C)C)nc(N)n4)CCN3)c2)cnn1C (single isomer, unassigned) [Compound 6, R or S-4-(3-(2-bromo-5-(1,5-dimethyl-1H-pyrazol-4-yl)phenyl)piperazin-1-yl)-6-isopropylpyrimidin-2-amine]
The IC50 of the first is higher: 0.5 to 5 µM for the first, less than 0.5 µM for the second. The second is the more potent here.

`Nc1nc(N2CCCC(c3ccn[nH]3)C2)c2cc[nH]c2n1` (stereo not drawn) [Compound 205, 4-(3-(1H-pyrazol-5-yl)piperidin-1-yl)-7H-pyrrolo[2,3-d]pyrimidin-2-amine] and `Nc1nc(N2CCCC(c3ccn[nH]3)C2)c2cnccc2n1` (stereo not drawn) [Compound 218, 4-(3-(1H-pyrazol-5-yl)piperidin-1-yl)pyrido[4,3-d]pyrimidin-2-amine] cannot be ordered by IC50: greater than 5 µM for the first, greater than 5 µM for the second.

`CN(C)CCCNC(=O)c1ccc(-c2cc(O)c3ncccc3c2)c(Br)c1` [Compound 323, 3-bromo-N-(3-(dimethylamino)propyl)-4-(8-hydroxyquinolin-6-yl)benzamide] and `Cc1cc(C(=O)NCCCN(C)C)ccc1-c1cc(O)c2ncccc2c1` [Compound 320, N-(3-(dimethylamino)propyl)-4-(8-hydroxyquinolin-6-yl)-3-methylbenzamide] fall in the same range of IC50: 0.5 to 5 µM for the first, 0.5 to 5 µM for the second.

First: Nc1nc(N2CCNC(c3cnc4ccccn34)C2)c2[nH]ccc2n1 (stereo not drawn) [Compound 55, 4-(3-(imidazo[1,2-a]pyridin-3-yl)piperazin-1-yl)-5H-pyrrolo[3,2-d]pyrimidin-2-amine]
Second: Nc1nc(C2CC2)cc(N2CCNC(c3cnc4ccccn34)C2)n1 (single isomer, unassigned) [Compound 104, (R/S)-4-cyclopropyl-6-(3-(imidazo[1,2-a]pyridin-3-yl)piperazin-1-yl)pyrimidin-2-amine]
The IC50 of the first is lower: 0.5 to 5 µM for the first, greater than 5 µM for the second.

Compared with `Nc1nc2c(c(N3CCNC(c4ccccc4Br)C3)n1)COCC2` (stereo not drawn) [Compound 184, 4-(3-(2-bromophenyl)piperazin-1-yl)-7,8-dihydro-5H-pyrano[4,3-d]pyrimidin-2-amine], `Nc1nc(NC2CC2)nc(N2CCN[C@H](c3ccccc3Br)C2)n1` (stereo in doubt) [Compound 64, (R/S)-6-(3-(2-bromophenyl)piperazin-1-yl)-N2-cyclopropyl-1,3,5-triazine-2,4-diamine] is higher in IC50: 0.5 to 5 µM for the first, greater than 5 µM for the second.

Compared with `Nc1cc(Nc2cccc(-c3cnccn3)c2)nc(N)n1` [Compound 192, N4-(3-(pyrazin-2-yl)phenyl)pyrimidine-2,4,6-triamine], `CNc1cc(N2CCCC(c3ncc4ccccn34)C2)nc(N)n1` (stereo not drawn) [Compound 94, 6-(3-(imidazo[1,5-a]pyridin-3-yl)piperidin-1-yl)-N4-methylpyrimidine-2,4-diamine] is higher in IC50: 0.5 to 5 µM for the first, greater than 5 µM for the second.

First: CN(C)CCCCNC(=O)c1ccc(-c2cc(O)c3ncccc3c2)cc1 [Compound 289, N-(4-(dimethylamino)butyl)-4-(8-hydroxyquinolin-6-yl)benzamide]
Second: CN(C)CCCNC(=O)N1CC=C(c2cc(O)c3ncccc3c2)CC1 [Compound 306, N-(3-(dimethylamino)propyl)-4-(8-hydroxyquinolin-6-yl)-3,6-dihydropyridine-1(2H)-carboxamide]
The IC50 of the first is lower: less than 0.5 µM for the first, 0.5 to 5 µM for the second.

`CN1CCN(C(=O)c2ccc(Br)c(C3CN(c4cc(N)nc(N)n4)CCN3)c2)CC1` (single isomer, unassigned) [Compound 15, (R/S)-(4-bromo-3-(4-(2,6-diaminopyrimidin-4-yl)piperazin-2-yl)phenyl)(4-methylpiperazin-1-yl)methanone] and `CC(C)c1nc(N)cc(N2CCNC(c3ccccc3Br)C2)n1` (single isomer, unassigned) [Compound 76, (R/S)-6-(3-(2-bromophenyl)piperazin-1-yl)-2-isopropylpyrimidin-4-amine] cannot be ordered by IC50: less than 0.5 µM for the first, less than 0.5 µM for the second.

First: CC(C)c1cc(N2CCCC(c3cnc4ccccn34)C2)ncn1 (racemic) [Compound 148, (R/S)-3-(1-(6-isopropylpyrimidin-4-yl)piperidin-3-yl)imidazo[1,2-a]pyridine]
Second: COc1ccccc1C1CN(c2cc(C(C)C)nc(N)n2)CCN1 (stereo not drawn) [Compound 171, 4-isopropyl-6-(3-(2-methoxyphenyl)piperazin-1-yl)pyrimidin-2-amine]
The IC50 of the first is higher: greater than 5 µM for the first, 0.5 to 5 µM for the second. The second is the more potent here.

First: CC(=O)N1CCN(c2cc(N)nc(NC3CC3)n2)CC1c1ccccc1Br (stereo not drawn) [Compound 52, 1-(4-(6-amino-2-(cyclopropylamino)pyrimidin-4-yl)-2-(2-bromophenyl)piperazin-1-yl)ethan-1-one]
Second: CNc1cc(N2CCC[C@@H](c3ccccc3Br)C2)nc(N)n1 (stereo in doubt) [Compound 87, (S/R)-6-(3-(2-bromophenyl)piperidin-1-yl)-N4-methylpyrimidine-2,4-diamine]
The IC50 of the first is higher: 0.5 to 5 µM for the first, less than 0.5 µM for the second.

`CNc1cc(N2CCN[C@@H](c3ccccc3Br)C2)nc(NC)n1` (stereo in doubt) [Compound 130, (S/R)-6-(3-(2-bromophenyl)piperazin-1-yl)-N2,N4-dimethylpyrimidine-2,4-diamine] and `Nc1nc(C2CC2)cc(N2CCCC(c3ccn[nH]3)C2)n1` (stereo not drawn) [Compound 211, 4-(3-(1H-pyrazol-5-yl)piperidin-1-yl)-6-cyclopropylpyrimidin-2-amine] cannot be ordered by IC50: greater than 5 µM for the first, greater than 5 µM for the second.
